Earlier results, collected in patent publication US20250288585A1, “SYNERGISTIC COMPOSITIONS FOR ENHANCED HAIR GROWTH AND METHODS FOR TREATING HAIR LOSS” (The Johns Hopkins University, priority 2024, published 2025).

Experiments:
[1] = liposomal hydrogel system
[2] = system: follicular sulfotransferase; details: topical 0.1% tretinoin, plucked hairs, in vitro
[3] = system: subjects with androgenetic alopecia; details: topical tretinoin alone

permeation through skin ex vivo [1]	SMILES	effect on expression of follicular sulfotransferase [2]	subjects with some hair regrowth [3]
enhanced the permeation	Nc1cc(N2CCCCC2)nc(N)[n+]1[O-] [minoxidil]	–	–
retained on the skin	CC1=C(/C=C/C(C)=C/C=C/C(C)=C/C(=O)O)C(C)(C)CCC1 [tretinoin, all-trans-retinoic acid]	influences the expression of follicular sulfotransferase	approximately 58%
